Read-outs that look alike come from different tables or passages of the source.
Tests used:
[1] = molecular target: T1, StOASS (O-acetylserine sulfhydrylase) (Salmonella typhimurium, UniProt P0A1E3); experiment: PLP fluorescence titration of ligands with StOASS; assay type: binding; design: His tag (N); made in house; host or cells: E. coli BL21(DE3), pET28a(+)
Experimental: Titrations of ligands with StOASS were examined by monitoring changes in the active site pyridoxal 5'phosphate (PLP) fluorescence of OASS using a Varian spectrofluorometer. The excitation and emission wavelengths for monitoring PLP signal change upon ligand binding were 412 nm and 507 nm respectively. All experiments were done at 23.0 ± 1°C. Slit widths were set to 5 nm for all experiments and PMT voltage was adjusted to get maximum signal for a given protein concentration. Initial readings of both the sample, Fsamp,0 and buffer, Fbuf,0 were taken, with F0 = Fsamp,0-Fbuf,0 defined as the initial fluorescence of the sample. The sample cuvette was then titrated with aliquots of ligands and mixed, equilibrated for 2-5 minutes before measurement. Data points from five such measurements were averaged to obtain Fave,i. The relative fluorescence quenching upon ligand binding is defined as Qobs,i = (F0-Fobs,i)/F0. All measurements were corrected for dilution, and inner filter effects.
Binding of ligands to OASS was analyzed to obtain the equilibrium binding constant, Kobs = [PL]/[P]*[L], using a single or two independent site binding models (eqn 1)(1) [drawing 1]
Where n, number of binding sites, Qobs, observed fluorescence quenching and Qmax, the maximum fluorescence quenching at saturation.

[2] = molecular target: T2, HiOASS (O-acetylserine sulfhydrylase) (Haemophilus influenzae, UniProt P45040); details: for TdS / ΔG / ΔH: 20 mM Tris pH 8.0, 50 mM NaCl
T2 sequence (P45040 whole entry): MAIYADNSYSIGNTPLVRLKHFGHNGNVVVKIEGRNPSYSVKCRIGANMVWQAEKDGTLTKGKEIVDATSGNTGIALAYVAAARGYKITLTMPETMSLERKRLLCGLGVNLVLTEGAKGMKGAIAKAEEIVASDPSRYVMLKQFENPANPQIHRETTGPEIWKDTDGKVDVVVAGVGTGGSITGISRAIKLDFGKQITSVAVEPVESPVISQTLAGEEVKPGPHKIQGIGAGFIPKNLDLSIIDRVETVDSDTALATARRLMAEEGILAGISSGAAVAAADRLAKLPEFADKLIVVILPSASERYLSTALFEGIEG
Experimental: (§1) Isothermal titration calorimetry (ITC) experiments were performed using a Nano-ITC (TA-Instruments). OASS was dialyzed at 25°C in 20 mM Tris buffer (pH 8.0) and 50 mM NaCl. Buffer solutions were degassed at room temperature prior to use. […] The heat of dilution for each injection was determined using buffer in the cell. Data obtained from the titration of ligands with OASS were analyzed using either a two-sites binding model (eqn 2)(2) [drawing 2]
(§2) Qi^tot is total heat after the i^th injection, V0 is the volume of calorimetric cell, K1 and K2 are the observed equilibrium constants for each site, and ΔH1 and ΔH2 are the corresponding enthalpy changes. Estimates of Kobs and ΔH were obtained by fitting the experimental data to the model and the best-fit parameters were selected based on the lowest Chi-squared values.

[3] = molecular target: T2, HiOASS (O-acetylserine sulfhydrylase); experiment: PLP fluorescence titration of ligands with HiOASS; assay type: binding; design: His tag (N); made in house; host or cells: E. coli BL21(DE3), pET28a(+); details: 20 mM Tris pH 8.0
[4] = molecular target: T1, StOASS (O-acetylserine sulfhydrylase)
Experimental: as §1, §2

[5] = substrate: CC(=O)OC[C@H](N)C(=O)O; experiment: Steady state kinetic measurement of StOASS activity (ninhydrin-cysteine assay); assay type: biochemical, Salmonella typhimurium; details: other: 0.1M Hepes, pH 7.5, 30 °C, 2 mM Na2S, OAS 1-10 mM
Experimental: Steady state kinetic measurement of StOASS activity in the reaction buffer (as in Fig S2).
OASS activity was measured by monitoring the cysteine formation. Data were fitted to Michaelis-Menten equation using origin 5.0. The Km(OAS) was estimated to be 0.89 […]
Enzyme assay: Assay is based on the specific reaction of ninhydrin with cysteine under strong acidic conditions and monitoring of modified cysteine (ninhydrin-cysteine adduct) at 560 nm. The reaction was allowed to proceed for 20 minutes (30 °C, linear phase) with varied concentrations of OAS (1- 10 mM, 2 mM Na2S) in the reaction buffer (0.1M Hepes, pH 7.5, 150 µl reaction volume). The reaction was terminated with 5% TFA and centrifuged at 11000 rpm for 2 min. 125 µl glacial acetic acid + 125 µl acidic ninhydrin reagent were added to 125 µl of supernatant. Samples were boiled for 10 min at 100°C and cooled to room temperature. 600 µl of chilled absolute ethanol was added to the mix and the absorbance at 560 nm was used for determining the amount of cysteine present in the sample. Cysteine liberated was determined from a standard curve plotted by using known concentrations of cysteine.

[6] = [NaCl] 0.02 M, 20 mM Tris pH 8.0
[7] = [NaCl] 0.1 M, 20 mM Tris pH 8.0
[8] = [NaCl] 0.2 M, 20 mM Tris pH 8.0
[9] = [NaCl] 0.5 M, 20 mM Tris pH 8.0
[10] = 10°C, 20 mM Tris pH 8.0, 50 mM NaCl
[11] = 15°C, 20 mM Tris pH 8.0, 50 mM NaCl
[12] = 20°C, 20 mM Tris pH 8.0, 50 mM NaCl
[13] = 25°C, 20 mM Tris pH 8.0, 50 mM NaCl
[14] = 30°C, 20 mM Tris pH 8.0, 50 mM NaCl
[15] = 35°C, 20 mM Tris pH 8.0, 50 mM NaCl
[16] = temperature not stated in the sentence (values match 30°C of Table 1)

CSCC[C@H](N)C(=O)O [Methionine, L-methionine]
N (number of binding sites) [1, 6]: 2 | Qmax (maximum fluorescence quenching at saturation) [1, 6]: 3.8 | ΔG [1, 6]: -13.3 ± 0.1 kJ/mol | Kobs ([1]; [NaCl] 0.02 M, 20 mM Tris pH 8.0, similar for each of two sites): 2.9 ± 0.1 × 10^2 M^-1 | Kobs ([1]; [NaCl] 0.02 M, 20 mM Tris pH 8.0, similar for each of two sites, listed as methionine): 290 M⁻¹ | Kobs [1, 7]: 6.5 ± 0.1 × 10^1 M^-1 | N (number of binding sites) [1, 7]: 2 | Qmax [1, 7]: 1.0 | ΔG [1, 7]: -10.0 ± 0.1 kJ/mol | Kobs [1, 8]: 5.5 ± 0.1 × 10^1 M^-1 | N (number of binding sites) [1, 8]: 2 | Qmax [1, 8]: 1.4 | ΔG [1, 8]: -9.4 ± 0.1 kJ/mol | Kobs [1, 9]: 3.5 ± 0.1 × 10^1 M^-1 | N (number of binding sites) [1, 9]: 2 | Qmax [1, 9]: 0.5 | ΔG [1, 9]: -8.7 ± 0.1 kJ/mol | Kd ([1]; from K1,obs and K2,obs of the PLP fluorescence titration, read-out: Kd): ~3.4 mM | enthalpic contribution to binding free energy [2]: 8% | TdS ([2]; 10°C): 7.1 kJ/mol | ΔG ([2]; 10°C): -7.2 ± 0.9 kJ/mol | ΔH ([2]; 10°C): -0.2 ± 0.1 kJ/mol | ΔG ([2]; 15°C): -7.2 ± 0.9 kJ/mol | ΔH ([2]; 15°C): -0.2 ± 0.1 kJ/mol | TdS ([2]; 20°C): 8.0 kJ/mol | ΔG ([2]; 20°C): -8.2 ± 1.0 kJ/mol | ΔH ([2]; 20°C): -0.2 ± 0.1 kJ/mol | TdS ([2]; 25°C): 6.9 kJ/mol | ΔG ([2]; 25°C): -7.6 ± 1.1 kJ/mol | ΔH ([2]; 25°C): -0.8 ± 0.1 kJ/mol | TdS ([2]; 30°C): 7.7 kJ/mol | ΔG ([2]; 30°C): -8.4 ± 1.0 kJ/mol | ΔH ([2]; 30°C): -0.7 ± 0.1 kJ/mol | Kobs ([3]; [NaCl] 0.02 M): 1.5 ± 0.1 × 10^2 M^-1 | Qmax ([3]; [NaCl] 0.02 M): 3.0 | ΔG ([3]; [NaCl] 0.02 M): -11.8 ± 0.2 kJ/mol | Kobs ([3]; [NaCl] 0.1 M): 5.8 ± 0.1 × 10^1 M^-1 | N (number of binding sites) ([3]; [NaCl] 0.1 M): 2 | Qmax ([3]; [NaCl] 0.1 M): 0.5 | ΔG ([3]; [NaCl] 0.1 M): -9.5 ± 0.5 kJ/mol | Kobs ([3]; [NaCl] 0.2 M): 3.4 ± 0.1 × 10^1 M^-1 | N (number of binding sites) ([3]; [NaCl] 0.2 M): 2 | Qmax ([3]; [NaCl] 0.2 M): 0.2 | ΔG ([3]; [NaCl] 0.2 M): -8.1 ± 0.5 kJ/mol | Kobs ([3]; [NaCl] 0.5 M): 2.3 ± 0.1 × 10^1 M^-1 | N (number of binding sites) ([3]; [NaCl] 0.5 M): 2 | Qmax ([3]; [NaCl] 0.5 M): 0.2 | ΔG ([3]; [NaCl] 0.5 M): -7.3 ± 0.6 kJ/mol | ΔH ([4]; 25 mM HEPES, pH 8.0, 50 mM NaCl, 25°C): -0.4 ± 0.1 kJ/M | TdS [4, 10]: 7.3 kJ/mol | ΔH [4, 10]: -1.3 ± 0.1 kJ/mol | ΔG ([4]; 10°C, 20 mM Tris pH 8.0, 50 mM NaCl, two independent sites model): -8.6 ± 0.8 kJ/mol | TdS [4, 11]: 7.2 kJ/mol | ΔG [4, 11]: -8.6 ± 0.4 kJ/mol | ΔH [4, 11]: -1.4 ± 0.1 kJ/mol | TΔS ([4]; 20°C): 8.2 kJ/M | ΔH ([4]; 20°C): -1.5 ± 0.1 kJ/M | TdS [4, 12]: 8.2 kJ/mol | ΔG [4, 12]: -9.7 ± 0.5 kJ/mol | ΔH [4, 12]: -1.5 ± 0.1 kJ/mol | TdS [4, 13]: 8.6 kJ/mol | ΔG [4, 13]: -9.5 ± 0.5 kJ/mol | ΔH [4, 13]: -0.9 ± 0.1 kJ/mol | TdS [4, 14]: 9.4 kJ/mol | ΔG [4, 14]: -10.4 ± 0.8 kJ/mol | ΔH [4, 14]: -1.0 ± 0.1 kJ/mol | TdS [4, 15]: 10.1 kJ/mol | ΔG [4, 15]: -11.3 ± 1.3 kJ/mol | ΔH [4, 15]: -1.2 ± 0.1 kJ/mol | net enthalpic contribution to total binding free energy ([4]; temperature not given): ~ 10% | ΔG [4, 16]: -10.4 kJ/M | ΔH [4, 16]: -1.0 ± 0.2 kJ/M

B1: StOASS (Salmonella enterica subsp. enterica serovar Typhimurium str. LT2) (protein)
chain: MSKIYEDNSLTIGHTPLVRLNRIGNGRILAKVESRNPSFSVKCRIGANMIWDAEKRGVLKPGVELVEPTSGNTGIALAYVAAARGYKLTLTMPETMSIERRKLLKALGANLVLTEGAKGMKGAIQKAEEIVASDPQKYLLLQQFSNPANPEIHEKTTGPEIWEDTDGQVDVFISGVGTGGTLTGVTRYIKGTKGKTDLITVAVEPTDSPVIAQALAGEEIKPGPHKIQGIGAGFIPGNLDLKLIDKVVGITNEEAISTARRLMEEEGILAGISSGAAVAAALKLQEDESFTNKNIVVILPSSGERYLSTALFADLFTEKELQQ
notes: His tag (N); made in house; host or cells: E. coli BL21(DE3), pET28a(+)
Km [5]: 0.89 mM
